From patent US5571820A, “Heterocyclic compound” (Taisho Pharmaceutical Co., Ltd., priority 1992, dated 1996)

Tests used:
[1] = tested on: gastrointestinal motor functions; conditions: Alimentary Pharmacology and Therapeutics, 6, 273, 1992; cited from earlier work
serotonin 4 receptor [2] = conditions: Alimentary Pharmacology and Therapeutics, 6, 273, 1992; cited from earlier work
serotonin 4 receptor [3] = target: T1, serotonin 4 receptor (Cavia porcellus, UniProt O70528); assay: Serotonin 4 receptor stimulating activity: twitch responses of electrically stimulated ileum longitudinal muscle strips; type: cell-based, guinea pig (Hartley); conditions: for EC50: twitch responses, guinea pig ileum longitudinal muscle strips, cumulative additions of agonist, read-out: ED50 of the serotonin 4 receptor stimulating activity
T1 construct: from tissue; host or cells: ileum longitudinal muscle strips of Hartley guinea pig
Text: Experiment 1. Serotonin 4 Receptor Stimulating Activity Compounds Tested
Twitch responses were examined in longitudinal muscle strips of guinea pig by a modification of the method described in The Journal of Pharmacology and Experimental Therapeutics, 252, 1378, 1990.
From Hartley guinea pigs, a section of ileum 25 cm in length and proximal to the ileocecal junction was removed. The longitudinal muscle strips obtained from two segments of ileum about 4 cm each in length were used for this experiment. The longitudinal muscle strips were suspended in Krebs' solution at 32° to 34° C. and bubbled with 95% O2 and 5% CO2 under a load of about 0.8 g. Twitch responses were recorded under electrical stimulation of 0.2 Hz, 1 msec pulse duration, using force displacement transducers. The longitudinal muscle strips, stimulated at supramaximal voltage, were allowed to equilibrate for about an hour. […] The test was carried out by exposing the strips to cumulative additions of agonist at least at 45-minute intervals.

T1 sequence (O70528 whole entry): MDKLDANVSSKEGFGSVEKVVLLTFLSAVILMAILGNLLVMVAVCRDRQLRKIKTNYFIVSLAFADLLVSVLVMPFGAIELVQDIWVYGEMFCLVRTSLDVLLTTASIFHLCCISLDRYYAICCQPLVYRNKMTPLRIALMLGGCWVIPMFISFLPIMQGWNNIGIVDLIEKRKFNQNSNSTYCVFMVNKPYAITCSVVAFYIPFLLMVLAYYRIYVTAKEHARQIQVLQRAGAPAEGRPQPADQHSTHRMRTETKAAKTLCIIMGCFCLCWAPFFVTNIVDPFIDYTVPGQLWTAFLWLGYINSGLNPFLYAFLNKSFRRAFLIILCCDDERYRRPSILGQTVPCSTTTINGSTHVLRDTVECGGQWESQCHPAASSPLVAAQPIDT

| Compound | EC50 (serotonin 4 receptor [3]) [nM] | other results |
| --- | --- | --- |
| COc1cc(N)c(Cl)cc1C(=O)NC1CCN(CCCOc2ccc(F)cc2)CC1OC (centres unmarked) [Cisapride] | – | effect on gastrointestinal motor functions and conditions [1]: accelerate gastrointestinal motor functions and improve gastrointestinal conditions; stimulation of serotonin 4 receptor (serotonin 4 receptor [2]): stimulants of serotonin 4 receptor |
| COc1cc(N)c(Cl)cc1C(=O)NC1CCN2CCCC1C2 (centres unmarked) [renzapride] | – | effect on gastrointestinal motor functions and conditions [1]: accelerate gastrointestinal motor functions and improve gastrointestinal conditions; stimulation of serotonin 4 receptor (serotonin 4 receptor [2]): stimulants of serotonin 4 receptor |
| CCn1c(=O)c(C(=O)N[C@H]2C[C@H]3CC[C@@H](C2)N3C)cc2ccccc21 [Compound 2] | 138 | – |
| CCCn1c(=O)c(C(=O)N[C@H]2C[C@H]3CC[C@@H](C2)N3C)cc2ccccc21 [Compound 3] | 413 | – |
| CCCCn1c(=O)c(C(=O)N[C@H]2C[C@H]3CC[C@@H](C2)N3C)cc2ccccc21 [Compound 4] | > 3000 | – |
| CN1[C@@H]2CC[C@H]1C[C@@H](NC(=O)c1cc3ccccc3[nH]c1=O)C2 [Compound 6] | > 3000 | – |
| CCCCn1c(=O)c(C(=O)N[C@H]2C[C@H]3CC[C@@H](C2)N3C)c(O)c2ccccc21 [Compound 7] | > 3000 | – |
| NCCc1c[nH]c2ccc(O)cc12 [5-hydroxytryptamine (5-HT), 5-hydroxytryptamine] | – | enhancement of twitch responses (serotonin 4 receptor [3]; 10^-8 M): twitch responses were enhanced |
| CC(C)Cn1c(=O)c(C(=O)N[C@H]2C[C@H]3CC[C@@H](C2)N3C)cc2ccccc21 [Compound 5] | 974 | – |
